Laboratory results reported in ChEMBL document CHEMBL4359918, “Discovery of tissue selective liver X receptor agonists for the treatment of atherosclerosis without causing hepatic lipogenesis” (Eur J Med Chem, 2019).
Activity calls are given as the source filed them. The calls are words filed in the database; no cut-off is given here.

How the values were obtained:
[1] = Selectivity index, ratio of compound effect for agonist activity at human LXRalpha to compound effect for agonist activity at […]
[2] = biological target: T1, Oxysterols receptor LXR-beta (Rattus norvegicus) (UniProt Q62755); experiment: Agonist activity at rat LXRbeta transfected in HEK293T cells at 10 uM incubated for 20 hrs by luciferase reporter gene assay relative to control; assay type: cell-based
T1 sequence (whole entry): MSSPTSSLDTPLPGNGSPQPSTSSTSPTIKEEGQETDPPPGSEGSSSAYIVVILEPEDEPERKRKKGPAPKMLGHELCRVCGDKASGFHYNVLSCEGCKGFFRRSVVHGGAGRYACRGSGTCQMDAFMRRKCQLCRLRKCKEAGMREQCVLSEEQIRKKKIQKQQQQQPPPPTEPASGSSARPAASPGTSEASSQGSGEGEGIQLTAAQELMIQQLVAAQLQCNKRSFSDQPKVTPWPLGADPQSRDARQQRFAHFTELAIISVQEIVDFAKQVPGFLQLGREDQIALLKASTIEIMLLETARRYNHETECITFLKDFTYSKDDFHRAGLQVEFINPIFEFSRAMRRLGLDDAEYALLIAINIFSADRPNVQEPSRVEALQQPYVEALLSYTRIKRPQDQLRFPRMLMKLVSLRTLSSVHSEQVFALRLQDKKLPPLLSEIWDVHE

[3] = tested on: HEK-293T; experiment: Cytotoxicity against HEK293T cells assessed as reduction in cell viability at […] incubated for 24 hrs by MTT assay; assay type: cell-based; conditions: human
[4] = biological target: T2, LXRalpha (Oxysterols receptor LXR-alpha) (Homo sapiens, UniProt Q13133); experiment: Agonist activity at human LXRalpha transfected in HEK293T cells at 10 uM incubated for 20 hrs by luciferase reporter gene assay relative to control; assay type: cell-based; conditions: HEK293T cells transfected with human LXRalpha, read-out: FC
T2 sequence (Q13133 whole entry): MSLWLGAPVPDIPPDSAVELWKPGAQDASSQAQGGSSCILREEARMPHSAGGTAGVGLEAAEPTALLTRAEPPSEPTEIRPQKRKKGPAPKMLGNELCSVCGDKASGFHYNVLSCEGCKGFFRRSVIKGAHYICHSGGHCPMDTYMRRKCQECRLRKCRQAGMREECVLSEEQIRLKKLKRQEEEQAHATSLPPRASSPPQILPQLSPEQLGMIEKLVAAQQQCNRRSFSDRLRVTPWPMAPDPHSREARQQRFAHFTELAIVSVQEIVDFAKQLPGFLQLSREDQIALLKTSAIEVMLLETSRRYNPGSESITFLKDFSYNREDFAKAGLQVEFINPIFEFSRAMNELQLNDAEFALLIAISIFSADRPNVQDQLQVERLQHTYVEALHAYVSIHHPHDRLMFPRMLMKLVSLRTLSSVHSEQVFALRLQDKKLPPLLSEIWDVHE

[5] = tested on: Mus musculus; experiment: Induction of hepatic steatosis in C57BL/6 mouse assessed as accumulation of serum triglyceride level at 50 mg/kg/day, ig administered for 7 days; assay type: organism-based; conditions: in vivo, po, 168 h
[6] = tested on: Mus musculus; experiment: Induction of hepatic steatosis in C57BL/6 mouse assessed as accumulation of hepatic triglyceride level at 50 mg/kg/day, ig administered for 7 days; assay type: organism-based; conditions: in vivo, po, 168 h
[7] = tested on: Mus musculus; experiment: Increase in hepatic triglyceride level in high fat diet-induced C57BL/6 mouse model of hypercholesterolemia at 20 mg/kg, po administered for 12 weeks; assay type: ADME, organism-based; conditions: in vivo, 2016 h
[8] = Toxicity in high fat diet-induced C57BL/6 mouse model of hypercholesterolemia assessed as reduction in liver weight at 20 mg/kg, po administered for 12 weeks by H and E staining-based assay; assay type: organism-based; conditions: in vivo, 2016 h
[9] = tested on: 3T3-L1; experiment: Anti-adipogenic activity in mouse 3T3L1 preadipocytes assessed as decrease in triglyceride accumulation; assay type: functional, cell-based
[10] = tested on: RAW264.7; experiment: Anti-atherosclerotic activity in mouse RAW264.7 cells assessed as inhibition of ox-LDL induced lipid accumulation at 10 uM incubated for 48 hrs by ORO staining based microscopic analysis; assay type: functional, cell-based
[11] = Agonist activity at LXR in mouse 3T3L1 preadipocytes assessed as increase in sREBP-1c mRNA expression at 10 uM by qPCR analysis; assay type: cell-based
[12] = tested on: HepG2; experiment: Effect on TG accumulation in human HepG2 cells at 10 uM incubated for 24 hrs; assay type: ADME, cell-based; conditions: hepg2, 24 h
[13] = Agonist activity at LXR in mouse 3T3L1 preadipocytes assessed as increase in ABCA1 mRNA expression at 10 uM by qPCR analysis; assay type: cell-based
[14] = tested on: HepG2; experiment: Lipid lowering activity in human HepG2 cells assessed as decrease in OA-induced TG accumulation at 10 uM incubated for 24 hrs; assay type: functional, cell-based
[15] = tested on: 3T3-L1; experiment: Cytotoxicity against mouse 3T3L1 preadipocytes assessed as reduction in cell viability at 2 to 50 uM incubated for 24 hrs by MTT assay; assay type: cell-based; conditions: 3t3-l1, 24 h
[16] = tested on: PBMC; experiment: Anti-atherosclerotic activity in C57BL/6 mouse PBMC assessed as inhibition of ox-LDL induced lipid accumulation at 10 uM incubated for 48 hrs by ORO staining based microscopic analysis; assay type: functional, cell-based
[17] = tested on: RAW264.7; experiment: Agonist activity at LXR in mouse RAW264.7 cells assessed as increase in ABCA1 mRNA expression at 10 uM incubated for 48 hrs by qPCR analysis; assay type: cell-based
[18] = tested on: RAW264.7; experiment: Cytotoxicity against mouse RAW264.7 cells assessed as reduction in cell viability at 2 to 50 µM incubated for 24 hrs by MTT assay; assay type: cell-based; conditions: raw264.7, 24 h
[19] = biological target: Liver X receptor (Homo sapiens) (UniProt Q13133+P55055); experiment: Agonist activity at LXR in human HepG2 cells assessed as increase in ABCA1 mRNA expression at 10 uM incubated for 24 hrs by qPCR analysis; assay type: cell-based
Liver X receptor (Homo sapiens), sequence (P55055 whole entry, looked up, one chain of several): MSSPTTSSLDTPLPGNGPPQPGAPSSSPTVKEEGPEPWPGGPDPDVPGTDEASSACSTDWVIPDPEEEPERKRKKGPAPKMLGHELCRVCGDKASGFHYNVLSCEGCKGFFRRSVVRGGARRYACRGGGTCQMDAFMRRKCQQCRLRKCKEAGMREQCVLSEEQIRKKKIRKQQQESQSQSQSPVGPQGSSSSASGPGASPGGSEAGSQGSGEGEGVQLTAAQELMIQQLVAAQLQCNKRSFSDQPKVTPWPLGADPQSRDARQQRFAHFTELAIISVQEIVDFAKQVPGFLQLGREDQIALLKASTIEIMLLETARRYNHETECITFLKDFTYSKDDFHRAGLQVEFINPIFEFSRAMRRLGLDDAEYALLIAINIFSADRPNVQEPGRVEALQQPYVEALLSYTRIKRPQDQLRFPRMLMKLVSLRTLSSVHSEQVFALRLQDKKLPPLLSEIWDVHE

[20] = tested on: HepG2; experiment: Cytotoxicity against human HepG2 cells assessed as reduction in cell viability at 2 to 50 uM incubated for 24 hrs by MTT assay; assay type: cell-based; conditions: hepg2, 24 h
[21] = species: Mus musculus; experiment: Agonist activity at LXR in C57BL/6 mouse PBMC assessed as increase in ABCA1 mRNA expression at 10 uM incubated for 48 hrs by qPCR analysis
[22] = tested on: 3T3-L1; experiment: Anti-adipogenic activity in mouse 3T3L1 preadipocytes assessed as decrease in lipid accumulation by Oil Red O staining-based microscopic analysis; assay type: functional, cell-based
[23] = biological target: T3, Oxysterols receptor LXR-alpha (Homo sapiens) (UniProt Q13133); experiment: Agonist activity at human LXRalpha transfected in HEK293T cells at 10 uM incubated for 20 hrs in presence of LXR antagonist SR9243 by luciferase reporter gene assay relative to control; assay type: cell-based
T3 sequence (whole entry): T2 sequence (Q13133 whole entry)

With `CC(=O)O[C@H]1CC[C@@]2(C)C(=CC[C@H]3[C@@H]4CC[C@H]([C@H](C)CCC(=O)C(C)C)[C@@]4(C)CC[C@@H]32)C1` the Ratio [1] was 1.14, the fold change (FC) [2] was 3 and the Activity [3] was “Non-Toxic”. It also gave a fold induction at 20 h, 10 µM [4] of 2.63.
In the case of `O=S(=O)(c1ccccc1)N(CC(F)(F)F)c1ccc(C(O)(C(F)(F)F)C(F)(F)F)cc1` [T091317], the Activity [5] is reported as “Toxic”, the Activity [6] is reported as “Toxic” and the Activity [7] is reported as “Toxic”. For the same molecule, the Activity [8] was “Toxic”.
For `CC(C)C(=O)CC[C@@H](C)[C@H]1CC[C@H]2[C@@H]3CC=C4C[C@@H](O)CC[C@]4(C)[C@H]3CC[C@]12C`, the Ratio [1] was 1.63, the Activity [9] was “Active” and the inhibition [10] was “Active”. For the same molecule, the Activity [11] was “Not Active”, the Activity [12] was “Non-Toxic” and the Activity [13] was “Active”. The fold change (FC) [2] was 3.85, the Activity [3] was “Non-Toxic” and the Activity [14] was “Active”. The Activity [15] was “Non-Toxic”, the inhibition [16] was “Active” and the fold induction at 20 h, 10 µM [4] was 2.36. For the same molecule, the Activity [17] was “Active”, the Activity [18] was “Non-Toxic” and the Activity [19] was “Active”. For the same molecule, the Activity [20] was “Non-Toxic”, the Activity [21] was “Active” and the Activity [22] was “Active”. The Activity [23] was “inactive”.
